Measurements as given in patent publication US20210393645A1, “TREATMENT FOR PROGRESSIVE MULTIPLE SCLEROSIS” (UTI LIMITED PARTNERSHIP, priority 2016, published 2021).
Counter-ions that a name gives are not always drawn. Like-named read-outs stand apart in the source and are kept apart here.

Test system: human neurons
Experiment: Iron (FeSO4) mediated neurotoxicity screening, MAP-2 positive neurons counted
Format: cell-based
Conditions: for viability at 10 µM: Homo sapiens, Neuron, read-out: Drug % control (mean): number of neurons normalized to untreated control
Description: Human neurons were isolated from brain tissues of therapeutically aborted 15-20 week old fetuses, in accordance with ethics approval of the University of Calgary ethics committee, after written informed consent of the pregnant donors. Neurons were isolated as previously described (Vecil et al., 2000) brain specimens were washed in phosphate buffered saline (PBS) to remove blood, followed by removal of meninges. […] Thereafter, the digestion was stopped by addition of 4 ml fetal calf serum (FCS). […] Cells were cultured in feeding medium of minimal essential medium (MEM) supplemented with 10% fetal bovine serum (FBS), 1 μM sodium pyruvate, 10 μM glutamine, 1× non-essential amino acids, 0.1% dextrose and 1% penicillin/streptomycin (all culture supplements from Invitrogen, Burlington, Canada). […] For experiments, the neuron-enriched cultures were retrypsinized and cells were plated in poly-L-ornithine pre-coated 96-well plates at a density of 100,000 cells/well in 100 μl of the complete medium supplemented with cytosine arabinoside. […] All conditions were performed in quadruplicates. A day later cells were fixed using 4% paraformaldehyde (PFA) and stored in PBS in 4° C.
Briefly, there were 80 compounds located in specific wells on each plate (e. g. B07). […] Each compound was supplied at a concentration of 10 mM dissolved in DMSO.
After filtering with a 0.2 μm filter, FeSO4 was added to cells in a final concentration of 25-50 μM in a volume of 50 μl medium to the cells. Rotenone was dissolved in dimethyl sulfoxide (DMSO) and used in a final concentration of 10 μM.
Staining was performed at room temperature. A blocking buffer was first introduced for 1 h followed by incubation with primary antibody overnight in 4° C.
Cell nuclei were stained with Hoechst S769121 (nuclear yellow). Cells were stored in 4° C. in the dark before imaging.
Images were taken using the automated ImageXpress® imaging system (Molecular Devices, Sunnyvale, Calif.) through a 10x objective microscope lens, displaying 4 or 9 sites per well. […] Cells were defined according to fluorescence intensity and size at different wavelengths. Data from all sites per well were averaged to one data point.
Neurons were pre-incubated with each compound for 1 h followed by application of FeSO4.

[1] = drug 10 μM 1 h before FeSO4 25 or 50 μM, MAP-2 neurons after 24 h

| SMILES | viability at 10 µM [1] [%] | also measured |
| --- | --- | --- |
| CC(C)C[C@H](CN)CC(=O)O [PREGABALIN] | – | viability at 10 µM (24 h): 47.8% |
| CN(C)CCC(c1ccc(Br)cc1)c1ccccn1 (stereo not shown) [BROMPHENIRAMINE MALEATE] | 79.9 | – |
| C[C@@H]1O[C@@H]1P(=O)(O)O [FOSFOMYCIN] | 31.2 | – |
| CN1CCN(CCCN2c3ccccc3Sc3ccc(Cl)cc32)CC1 [PROCHLORPERAZINE EDISYLATE] | 4.88 | – |
| CCN(CC)CCNC(=O)c1cc(Cl)c(N)cc1OC [METOCLOPRAMIDE HYDROCHLORIDE] | 37.9 | – |
| Cc1cccc(Nc2ccccc2C(=O)O)c1C [MEFENAMIC ACID] | 57.2 | – |
| C[N+](C)(C)CCOC(N)=O [CARBACHOL] | 8.87 | – |
| COc1ccc2cc(CCC(C)=O)ccc2c1 [NABUMETONE] | 48.9 | – |
| CN(C)C(=O)C(CCN1CCC(O)(c2ccc(Cl)cc2)CC1)(c1ccccc1)c1ccccc1 [LOPERAMIDE HYDROCHLORIDE] | 55.5 | – |
| CN1CCN(C2=Nc3cc(Cl)ccc3Nc3ccccc32)CC1 [CLOZAPINE] | 101 | – |
| Cc1cc(=O)n(-c2ccccc2)n1C [ANTIPYRINE] | 2.11 | – |
| CC[C@H]1OC(=O)[C@H](C)[C@@H](O[C@H]2C[C@@](C)(OC)[C@@H](O)[C@H](C)O2)[C@H](C)[C@@H](O[C@@H]2O[C@H](C)C[C@H](N(C)C)[C@H]2O)[C@](C)(OC)C[C@@H](C)C(=O)[C@H](C)[C@@H](O)[C@]1(C)O [CLARITHROMYCIN] | 55.1 | – |
| CN(C)CC[C@@H](c1ccc(Cl)cc1)c1ccccn1.O=C(O)/C=C\C(=O)O [CHLORPHENIRAMINE(S) MALEATE] | – | Drug % control (mean): number of neurons normalized to untreated control [1]: 52.32% |
| O=C1CN(/N=C/c2ccc([N+](=O)[O-])o2)C(=O)N1 [NITROFURANTOIN] | 17.8 | – |
| CN(C)CCOC(c1ccccc1)c1ccccc1 [DIPHENHYDRAMINE HYDROCHLORIDE] | 74.7 | – |
| COCCc1ccc(OCC(O)CNC(C)C)cc1 (stereo not shown) [METOPROLOL TARTRATE] | 71.5 | – |
| O=C1CC[C@@]2(O)[C@H]3Cc4ccc(O)c5c4[C@@]2(CCN3CC2CC2)[C@H]1O5 [NALTREXONE HYDROCHLORIDE] | 39.5 | – |
| NNCCc1ccccc1 [PHENELZINE SULFATE] | 46.7 | – |
| CC(=O)Nc1ccc(O)cc1 [ACETAMINOPHEN] | 35.1 | – |
| CC(=O)N[C@@H](CS)C(=O)O [ACETYLCYSTEINE] | 21.7 | – |
| NC(=O)N1c2ccccc2CC(=O)c2ccccc21 [OXCARBAZEPINE] | 38.2 | – |
| CN1CCC[C@@H]1CCO[C@](C)(c1ccccc1)c1ccc(Cl)cc1 [CLEMASTINE] | 6.19 | – |
| C[C@H]1c2cccc(O)c2C(=O)C2=C(O)[C@]3(O)C(=O)C(C(N)=O)=C(O)[C@@H](N(C)C)[C@@H]3[C@@H](O)[C@@H]21 [DOXYCYCLINE HYDROCHLORIDE] | 12.7 | – |

| SMILES | viability at 10 µM [1] [%] | also measured |
| --- | --- | --- |
| CC(=O)CCCCn1c(=O)c2c(ncn2C)n(C)c1=O [PENTOXIFYLLINE] | 66.5 | – |
| CN(C)CCc1c[nH]c2ccc(CS(=O)(=O)N3CCCC3)cc12 [ALMOTRIPTAN] | 94.4 | – |
| NC(=O)N1c2ccccc2C=Cc2ccccc21 [CARBAMAZEPINE] | 13.3 | – |
| CC(C)N(CCC(C(N)=O)(c1ccccc1)c1ccccn1)C(C)C (stereo not shown) [DISOPYRAMIDE PHOSPHATE] | 4.63 | – |
| CCN(CCO)CCCC(C)Nc1ccnc2cc(Cl)ccc12 (stereo not shown) [HYDROXYCHLOROQUINE SULFATE] | 75.9 | – |
| CC(=O)/N=c1/sc(S(N)(=O)=O)nn1C [METHAZOLAMIDE] | 54.3 | – |
| Cc1cc(N)c2ccccc2[n+]1CCCCCCCCCC[n+]1c(C)cc(N)c2ccccc21 [DEQUALINIUM CHLORIDE] | 10.5 | – |
| CC(C)Cc1ccc(C(C)C(=O)O)cc1 (stereo not shown) [IBUPROFEN] | 2.48 | – |
| O=C(c1ccccc1)c1ccc2n1CCC2C(=O)O (stereo not shown) [KETOROLAC TROMETHAMINE] | 52.4 | – |
| CC[C@H](C)C(=O)O[C@H]1C[C@H](O)C=C2C=C[C@H](C)[C@H](CC[C@@H](O)C[C@@H](O)CC(=O)O)[C@H]21 [PRAVASTATIN SODIUM] | 40.5 | – |
| OC(CCN1CCCC1)(c1ccccc1)C1CCCCC1 (stereo not shown) [PROCYCLIDINE HYDROCHLORIDE] | 95.6 | – |
| CC(C)[N+]1(C)[C@@H]2CC[C@H]1CC(OC(=O)C(CO)c1ccccc1)C2.[Br-] (stereo partly shown) [IPRATROPIUM BROMIDE] | – | Drug % control (mean): number of neurons normalized to untreated control: 63.39% |
| Nc1ccc(C(=O)O)cc1 [POTASSIUM p-AMINOBENZOATE] | 44.5 | – |
| CO[C@H]1/C=C/O[C@@]2(C)Oc3c(C)c(O)c4c(O)c(c5c(nc6cc(C)ccn65)c4c3C2=O)NC(=O)/C(C)=C\C=C\[C@H](C)[C@H](O)[C@@H](C)[C@@H](O)[C@@H](C)[C@H](OC(C)=O)[C@@H]1C [RIFAXIMIN] | 53.8 | – |
| C[C@H](CS)C(=O)N1CCC[C@H]1C(=O)O [CAPTOPRIL] | 35.3 | – |
| CC(C)NCC(O)COc1ccc(CC(N)=O)cc1 (stereo not shown) [ATENOLOL] | 43.4 | – |
| CC(=O)Nc1nnc(S(N)(=O)=O)s1 [ACETAZOLAMIDE] | 23.6 | – |
| CC[C@H]1OC(=O)[C@H](C)[C@@H](O[C@H]2C[C@@](C)(OC)[C@@H](O)[C@H](C)O2)[C@H](C)[C@@H](O[C@@H]2O[C@H](C)C[C@H](N(C)C)[C@H]2O)[C@](C)(O)C[C@@H](C)CN(C)[C@H](C)[C@@H](O)[C@]1(C)O [AZITHROMYCIN] | 56.8 | – |
| CCC[C@H](N[C@@H](C)C(=O)N1[C@H](C(=O)O)C[C@@H]2CCCC[C@@H]21)C(=O)OCC [PERINDOPRIL ERBUMINE] | 49.4 | – |
| NC(=O)C[S+]([O-])C(c1ccccc1)c1ccccc1 (stereo not shown) [MODAFINIL] | 43.9 | – |
| CN(C)CCOC(c1ccccc1)c1ccccc1.Cn1c(=O)c2[nH]c(Cl)nc2n(C)c1=O [DIMENHYDRINATE] | – | Drug % control (mean): number of neurons normalized to untreated control [1]: 36.53% |
| CN(CCOc1ccc(CC2SC(=O)NC2=O)cc1)c1ccccn1 (stereo not shown) [ROSIGLITAZONE] | 77.6 | – |
| COc1ccc(C(CN(C)C)C2(O)CCCCC2)cc1 (stereo not shown) [VENLAFAXINE] | 72.5 | – |

| SMILES | viability at 10 µM [1] [%] | also measured |
| --- | --- | --- |
| CN1[C@@H]2CC[C@H]1C[C@@H](OC(c1ccccc1)c1ccccc1)C2 [BENZTROPINE] | – | viability at 10 µM (24 h): 11.4% |
| CS(=O)(=O)OCCCCOS(C)(=O)=O [BUSULFAN] | 13.3 | – |
| O=C(O)c1cn(C2CC2)c2cc(N3CCNCC3)c(F)cc2c1=O [CIPROFLOXACIN] | – | viability at 10 µM (24 h): 41% |
| COc1ccc2cc([C@H](C)C(=O)O)ccc2c1 [NAPROXEN(+)] | – | Drug % control (mean): number of neurons normalized to untreated control [1]: 25.64% |
| Cc1c(Cl)cccc1Nc1ccccc1C(=O)O [TOLFENAMIC ACID] | 40.3 | – |
| OC[C@H]1O[C@@H](O[C@@H]2[C@@H](CO)OC(O)(CO)[C@H]2O)[C@H](O)[C@@H](O)[C@H]1O (mixture of isomers) [LACTULOSE] | 80.8 | – |
| C[C@H]1COc2c(N3CCN(C)CC3)c(F)cc3c(=O)c(C(=O)O)cn1c23 [LEVOFLOXACIN] | 56.4 | – |
| CCCCc1oc2ccccc2c1C(=O)c1cc(I)c(OCCN(CC)CC)c(I)c1 [AMIODARONE HYDROCHLORIDE] | 71.3 | – |
| NNC(=O)c1ccncc1 [ISONIAZID] | 2.41 | – |
| N[C@@H](Cc1ccc(O)c(O)c1)C(=O)O [LEVODOPA] | 81.2 | – |
| Cn1c(=O)c2[nH]cnc2n(C)c1=O [THEOPHYLLINE] | – | viability at 10 µM (24 h): 23.3% |
| O=C1NC(=O)C(c2ccccc2)(c2ccccc2)N1 [PHENYTOIN SODIUM] | 30.1 | – |
| COC(=O)Nc1nc2ccc(C(=O)c3ccccc3)cc2[nH]1 [MEBENDAZOLE] | 2.48 | – |
| CO[C@H]1/C=C/O[C@@]2(C)Oc3c(C)c(O)c4c(O)c(c(/C=N/N5CCN(C)CC5)c(O)c4c3C2=O)NC(=O)/C(C)=C\C=C\[C@H](C)[C@H](O)[C@@H](C)[C@@H](O)[C@@H](C)[C@H](OC(C)=O)[C@@H]1C [RIFAMPIN] | – | viability at 10 µM (24 h): 95.5% |
| CC(C)c1nc(N(C)S(C)(=O)=O)nc(-c2ccc(F)cc2)c1/C=C/[C@@H](O)C[C@@H](O)CC(=O)O [ROSUVASTATIN] | 35.4 | – |
| CN/C(=N/CCSCc1nc[nH]c1C)NC#N [CIMETIDINE] | 34.4 | – |
| CN(C)C(=O)Oc1cccc([N+](C)(C)C)c1 [NEOSTIGMINE BROMIDE] | 44.8 | – |
| Nc1ccc(S(=O)(=O)c2ccc(N)cc2)cc1 [DAPSONE] | 18.6 | – |
| CCOC(=O)[C@H](CCc1ccccc1)N[C@@H](C)C(=O)N1[C@H](C(=O)O)C[C@H]2CCCC[C@@H]21 [TRANDOLAPRIL] | 72.3 | – |
| NC[C@H]1CC[C@H](C(=O)O)CC1 [TRANEXAMIC ACID] | 36.3 | – |
| CCCc1nn(C)c2c(=O)[nH]c(-c3cc(S(=O)(=O)N4CCN(C)CC4)ccc3OCC)nc12 | 49.3 | – |
